According to ChEMBL document CHEMBL5576094, “A Diterpenoid of the Medicinal Plant Andrographis paniculata Targets Cutaneous TRPV3 Channel and Relieves Itch” (J Nat Prod, 2024):

Key:
Mus musculus [1] = organism: Mus musculus; experiment: Antipruritic activity in carvacrol-induced scratching C57B/6 mouse model assessed as inhibition of neck scratching behavior at 50 uM, ID pretreated for 30 mins followed by carvacrol stimulation and measured for 30 mins relative to control; type: functional; conditions: C57B/6, 1 h, time 60 min
Mus musculus [2] = organism: Mus musculus; experiment: Antipruritic activity in carvacrol-induced scratching C57B/6 mouse model assessed as inhibition of neck scratching behavior at 10 uM, ID pretreated for 30 mins followed by carvacrol stimulation and measured for 30 mins relative to control; type: functional; conditions: C57B/6, 1 h, time 60 min
[3] = molecular target: T1, Transient receptor potential cation channel subfamily V member 3 (Homo sapiens, UniProt Q8NET8); experiment: Inhibition of human TRPV3 expressed in HEK293 cells assessed as reduction in 2-APB induced channel current at voltage ramp from -100 to +100 mV by whole-cell patch clamp electrophysiology; type: cell-based
T1 sequence (Q8NET8 whole entry): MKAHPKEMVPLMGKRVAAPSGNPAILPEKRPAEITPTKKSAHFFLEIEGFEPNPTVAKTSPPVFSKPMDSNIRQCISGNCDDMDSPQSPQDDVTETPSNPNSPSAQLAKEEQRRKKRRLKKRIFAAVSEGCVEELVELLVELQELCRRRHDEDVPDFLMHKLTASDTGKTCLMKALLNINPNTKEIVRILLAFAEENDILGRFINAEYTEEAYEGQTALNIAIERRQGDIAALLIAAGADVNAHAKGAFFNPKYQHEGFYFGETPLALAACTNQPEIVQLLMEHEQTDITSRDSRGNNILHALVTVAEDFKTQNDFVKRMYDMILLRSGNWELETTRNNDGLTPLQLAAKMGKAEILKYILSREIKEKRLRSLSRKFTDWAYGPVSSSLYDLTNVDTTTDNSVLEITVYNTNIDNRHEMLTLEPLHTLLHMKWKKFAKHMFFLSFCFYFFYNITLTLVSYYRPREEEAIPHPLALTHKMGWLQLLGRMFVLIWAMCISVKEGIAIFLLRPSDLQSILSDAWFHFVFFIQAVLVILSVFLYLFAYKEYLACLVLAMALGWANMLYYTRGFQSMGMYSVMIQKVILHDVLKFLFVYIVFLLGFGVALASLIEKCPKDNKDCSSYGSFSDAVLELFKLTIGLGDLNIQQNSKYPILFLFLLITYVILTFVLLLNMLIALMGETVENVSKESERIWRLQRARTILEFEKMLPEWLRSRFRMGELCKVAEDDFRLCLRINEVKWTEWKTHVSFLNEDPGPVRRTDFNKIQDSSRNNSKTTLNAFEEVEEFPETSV

Mus musculus [4] = organism: Mus musculus; experiment: Antipruritic activity in carvacrol-induced scratching C57BL/6 mouse model assessed as inhibition of neck scratching behavior at 300 uM, ID pretreated for 30 mins followed by carvacrol stimulation and measured for 30 mins relative to control; type: functional; conditions: C57BL/6, 1 h, time 60 min
Mus musculus [5] = organism: Mus musculus; experiment: Antipruritic activity in histamine-induced scratching C57BL/6 mouse model assessed as inhibition of neck scratching behavior at 0.3 to 30 uM, ID pretreated for 30 mins followed by histamine stimulation and measured for 30 mins relative to control; type: functional; conditions: dose 0.3-30 µM, time 60 min, 1 h
Mus musculus [6] = organism: Mus musculus; experiment: Antipruritic activity in carvacrol-induced scratching C57BL/6 mouse model assessed as inhibition of neck scratching behavior at 30 uM, ID pretreated for 30 mins followed by carvacrol stimulation and measured for 30 mins relative to control; type: functional; conditions: C57BL/6, 1 h, time 60 min

| SMILES | inhibition in vivo at 50 µM (Mus musculus [1]) | inhibition in vivo at 10 µM (Mus musculus [2]) | IC50 [3] | inhibition in vivo at 300 µM (Mus musculus [4]) | inhibition (INH) (Mus musculus [5]) | inhibition in vivo at 30 µM (Mus musculus [6]) |
| --- | --- | --- | --- | --- | --- | --- |
| CCCCOc1ccc(C(=O)CCN2CCCCC2)cc1 [DYCLONINE] | 100% | ~41% | – | – | – | – |
| C[C@@H]1O[C@@H](O[C@@H]2[C@@H](O)[C@H](OCCc3ccc(O)c(O)c3)O[C@H](CO[C@@H]3OC[C@](O)(CO)[C@H]3O)[C@H]2OC(=O)/C=C/c2ccc(O)c(O)c2)[C@H](O)[C@H](O)[C@H]1O | – | – | 6.7 µM | 77% | 57% | ~56% |
